{"source": "paper PMC10748408", "about": "(Frontiers in Oncology, 2023)", "key": {"tumor cells": {"test_system": "tumor cells", "experiment": "Cell cycle assay (PI, flow cytometry) of cells isolated from tumors", "assay_type": "in vivo, BALB/c mice", "conditions": "25 and 50 mg/kg bodyweight ART vs untreated tumor-bearing mice, p<0.05", "protocol": "Cells (1 x 10^6) were isolated from tissues by collagenase-hyaluronidase digestion and fixed in ice-cold ethanol at -20°C. Samples were washed and resuspended in PBS containing 40 µg/mL RNase A for 1 hr. The cells were then stained with 30 µg/mL propidium iodide in the dark for 30 minutes and analyzed by flow cytometry using the BD Verse (BD Biosciences, USA). Data were analyzed using the BD FACSuite™ software ([35])."}, "beclin1 and LC3α/β": {"test_system": "beclin1 and LC3α/β", "experiment": "Western blot of autophagic markers in tumor tissues", "assay_type": "in vivo, BALB/c mice", "conditions": "ART dose-dependent", "protocol": "Normal and tumor tissues were homogenized in ice-cold radioimmunoprecipitation assay (RIPA) buffer containing a protease inhibitor cocktail. Proteins were resolved by 10% sodium dodecyl sulphate-polyacrylamide gel electrophoresis (SDS-PAGE), transferred onto polyvinylidene difluoride (PVDF) membranes, blocked with 5% fat-free milk and incubated with primary antibodies (1:1000 dilution) overnight at 4°C. Blots were subsequently washed and incubated with respective secondary antibodies, tagged with horseradish peroxidase. Protein expression was detected using enhanced chemiluminescence (ECL) kit ([37]). Blots were analyzed using the Gel Doc XR and band intensity quantified using ImageJ software (NIH, USA)."}, "[1]": {"test_system": "ALDH+ cells (CSCs) of mammary tumors", "experiment": "ALDH+ population estimation (Aldefluor) in tumors", "assay_type": "in vivo, BALB/c mice", "conditions": "untreated tumor 24.1%", "protocol": "Mammary fat pad and tumor tissues (1 × 10^6 cells/ml) were resuspended in aldefluor™ assay buffer containing ALDH substrate and incubated for 45 minutes at 37°C. As a control, cells were resuspended in buffer containing aldefluor substrate in the presence of diethylaminobenzaldehyde (DEAB), a specific ALDH inhibitor. The fluorescent ALDH^+ cells were detected in the green fluorescence channel (520-540nm) in a flow cytometer (BD FACS Aria III). ALDH^+ and ALDH^- cells were eventually sorted using the BD Aria III Cell Sorter and sorted cells collected for further analysis (BD Biosciences, USA; [21])."}, "normal mice": {"test_system": "normal mice", "experiment": "Hematological parameters of normal mice treated with ART", "assay_type": "in vivo, BALB/c mice", "protocol": "Blood was drawn for hematological estimations by thoracotomy and collected in heparinized vials. Blood was diluted using RBC diluting fluid (1: 1000) and WBC diluting fluid (1:100), and RBCs and WBCs were counted using a Neubauer counting chamber. Differential count was performed on blood smear stained with Leishman stain and observed under a microscope at 40X magnification (Dewinter Optical Inc., India). The percentage of lymphocytes, neutrophils, monocytes, eosinophils and basophils were recorded according to their nuclear structure ([27]). Hemoglobin content was estimated using Drabkin’s solution (1g sodium bicarbonate, 0.05g potassium cyanide and 0.2g potassium ferricyanide per liter), which lysed RBCs to convert hemoglobin to cyanmethemoglobin. Finally, the hemoglobin content of the test and the standard samples were obtained in gm/dl by recording the O.D. at 540 nm, and using the formula: O.D of test/O.D of standard x concentration of standard ([28])."}, "4T1 cells": {"test_system": "4T1 cells", "experiment": "Apoptotic cells (Annexin-FITC/PI flow cytometry) with or without CLEC12A overexpression", "assay_type": "cell-based, murine", "conditions": "4T1, non-transfected, ART + (1 µM, 24 hours); without ART 0.2%", "protocol": "Cells, isolated from normal and treated/untreated tumor tissues by collagenase-hyaluronidase digestion, were washed with Ca^2+-free PBS and stained with Annexin V binding buffer (1X). The cells were then incubated with Annexin V-FITC and propidium iodide (PI) for 15 minutes at 37°C. Cells were eventually analyzed on the BD FACS Aria III (Alexa Fluor at 488nm and PE at 570 nm, respectively). The percentage of apoptotic and necrotic cells were analyzed using the […]™ software (BD Biosciences, USA; [37]). For transfection, MDA-MB-231 and 4T1 cells were grown in a 6-well plate until they reached 70% confluency. CLEC12A-pcDNA recombinant/empty DNA plasmid (2500ng) or pcDNA empty vector (2500ng) was transfected into cells using 5μl Lipofectamine® 2000 reagent. […] Finally, transfection efficiency was confirmed by western blot analysis ([42])."}, "4T1 mammary tumors": {"test_system": "4T1 mammary tumors", "experiment": "Tumor size, weight and volume in 4T1 mammary tumor model", "assay_type": "in vivo, BALB/c mice", "conditions": "12.5, 25 and 50 mg/kg body weight of ART vs untreated tumor-bearing mice", "protocol": "Mouse mammary 4T1 cells in passage numbers between 7 and 12 (10^4 cells/ml in 50 µl PBS) were injected into the inguinal 4th mammary fat pad of BALB/c mice ([23], [24]). Normal mice received an equal volume of sterile PBS. A palpable tumor was allowed to develop for 14 days ([24]). […] Normal (mammary fat pad surrounding the 4th inguinal mammary pad), mammary tumor, and organs like lungs, kidney, liver, and blood were collected at the end of the experimental schedule. Body weight and tumor volume of each mouse were recorded daily during the tenure of the experiment. Tumor volume was calculated using the following formula: length (mm) × width^2 (mm) × 0.52 ([25])."}}, "data": [{"compound": "C[C@@H]1CC[C@H]2[C@@H](C)C(=O)O[C@@H]3O[C@@]4(C)CC[C@@H]1[C@]32OO4", "note": "[ART, Artemisinin]", "values": [{"measurement": "percentage of G2/M cell count", "setting": "tumor cells", "result": "significant increase"}, {"measurement": "expression of autophagic markers, beclin1 and LC3α/β", "setting": "beclin1 and LC3α/β", "result": "decreased expression"}, {"measurement": "percentage of ALDH+ cells", "setting": "[1]; T+ 25: ART 25 mg/kg", "result": 8.1, "unit": "%"}, {"measurement": "percentage of ALDH+ cells", "setting": "[1]; T+ 50: ART 50 mg/kg", "result": 6.2, "unit": "%"}, {"measurement": "Differential Count % B (Basophils)", "setting": "normal mice; ART 6.25 mg/kg body wt", "result": 0, "unit": "%"}, {"measurement": "Differential Count % E (Eosinophils)", "setting": "normal mice; ART 6.25 mg/kg body wt", "result": 0, "unit": "%"}, {"measurement": "Differential Count % L (Lymphocytes)", "setting": "normal mice; ART 6.25 mg/kg body wt", "result": "67± 4.1", "unit": "%"}, {"measurement": "Differential Count % M (Monocytes)", "setting": "normal mice; ART 6.25 mg/kg body wt", "result": 0, "unit": "%"}, {"measurement": "Differential Count % N (Neutrophils)", "setting": "normal mice; ART 6.25 mg/kg body wt", "result": "33± 3.1", "unit": "%"}, {"measurement": "Hb", "setting": "normal mice; ART 6.25 mg/kg body wt", "result": "13.1 ± 0.45", "unit": "g/dL"}, {"measurement": "Total RBC", "setting": "normal mice; ART 6.25 mg/kg body wt", "result": "8.1± 0.62 10^6cells/mm^3"}, {"measurement": "Differential Count % B (Basophils)", "setting": "normal mice; ART 12.5 mg/kg body wt", "result": 0, "unit": "%"}, {"measurement": "Differential Count % E (Eosinophils)", "setting": "normal mice; ART 12.5 mg/kg body wt", "result": 0, "unit": "%"}, {"measurement": "Differential Count % L (Lymphocytes)", "setting": "normal mice; ART 12.5 mg/kg body wt", "result": "72± 1.7", "unit": "%"}, {"measurement": "Differential Count % M (Monocytes)", "setting": "normal mice; ART 12.5 mg/kg body wt", "result": 0, "unit": "%"}, {"measurement": "Differential Count % N (Neutrophils)", "setting": "normal mice; ART 12.5 mg/kg body wt", "result": "28± 3.5", "unit": "%"}, {"measurement": "Hb", "setting": "normal mice; ART 12.5 mg/kg body wt", "result": "14.1 ± 0.47", "unit": "g/dL"}, {"measurement": "Total RBC", "setting": "normal mice; ART 12.5 mg/kg body wt", "result": "7.8± 0.38 10^6cells/mm^3"}, {"measurement": "Total WBC", "setting": "normal mice; ART 12.5 mg/kg body wt", "result": "8.3± 1.8 10^3 cells/mm^3"}, {"measurement": "Differential Count % B (Basophils)", "setting": "normal mice; ART 25 mg/kg body wt", "result": 0, "unit": "%"}, {"measurement": "Differential Count % E (Eosinophils)", "setting": "normal mice; ART 25 mg/kg body wt", "result": 0, "unit": "%"}, {"measurement": "Differential Count % L (Lymphocytes)", "setting": "normal mice; ART 25 mg/kg body wt", "result": "74± 3.4", "unit": "%"}, {"measurement": "Differential Count % M (Monocytes)", "setting": "normal mice; ART 25 mg/kg body wt", "result": 0, "unit": "%"}, {"measurement": "Differential Count % N (Neutrophils)", "setting": "normal mice; ART 25 mg/kg body wt", "result": "26± 2.3", "unit": "%"}, {"measurement": "Hb", "setting": "normal mice; ART 25 mg/kg body wt", "result": "14.7 ± 0.39", "unit": "g/dL"}, {"measurement": "Total RBC", "setting": "normal mice; ART 25 mg/kg body wt", "result": "8.2± 0.34 10^6cells/mm^3"}, {"measurement": "Total WBC", "setting": "normal mice; ART 25 mg/kg body wt", "result": "8.75± 2.6 10^3 cells/mm^3"}, {"measurement": "Differential Count % B (Basophils)", "setting": "normal mice; ART 50 mg/kg body wt", "result": 0, "unit": "%"}, {"measurement": "Differential Count % E (Eosinophils)", "setting": "normal mice; ART 50 mg/kg body wt", "result": 0, "unit": "%"}, {"measurement": "Differential Count % L (Lymphocytes)", "setting": "normal mice; ART 50 mg/kg body wt", "result": "70± 2.2", "unit": "%"}, {"measurement": "Differential Count % M (Monocytes)", "setting": "normal mice; ART 50 mg/kg body wt", "result": 1, "unit": "%"}, {"measurement": "Differential Count % N (Neutrophils)", "setting": "normal mice; ART 50 mg/kg body wt", "result": "29 ± 3.2", "unit": "%"}, {"measurement": "Hb", "setting": "normal mice; ART 50 mg/kg body wt", "result": "13.8 ± 0.41", "unit": "g/dL"}, {"measurement": "Total RBC", "setting": "normal mice; ART 50 mg/kg body wt", "result": "8.1± 0.41 10^6cells/mm^3"}, {"measurement": "Total WBC", "setting": "normal mice; ART 50 mg/kg body wt", "result": "8.3± 1.44 10^3 cells/mm^3"}, {"measurement": "percentage of apoptotic cells", "setting": "4T1 cells", "result": 11, "unit": "%"}, {"measurement": "tumor weight and volume", "setting": "4T1 mammary tumors", "result": "Significant decrease"}]}]}
